Reference: paper PMC7150648 (ACS infectious diseases, 2020)
Entries after “also recorded” stand apart in the source; their conditions may differ. Like-named read-outs stand apart in the source and are kept apart here.

Experiments:
LasR [1] = target: T1, LasR (Pseudomonas aeruginosa, UniProt P25084); details: P. aeruginosa LasR reporter; ref [30]; cited from earlier work
LasR [2] = target: T1, LasR; details: result in words; ref Wu et al., FASEB J. 2016; cited from earlier work
LasR [3] = target: T1, LasR; details: 50 μM compound; 16 h protein production
MexAB-OprM efflux pump = details: P. aeruginosa; ref [16]; cited from earlier work
LasR S129A mutant = LasR S129A mutant (Pseudomonas aeruginosa, UniProt P25084, S129A); test: E. coli LasR mutant reporter, S129A; assay type: cell-based; details: result in words
LasR [4] = target: T1, LasR; test: LasR agonism, P. aeruginosa PAO-JP2 GFP reporter, compound alone; assay type: cell-based; details: result in words
QscR = QscR (Pseudomonas aeruginosa, UniProt G3XD77); assay type: cell-based; details: E. coli reporter; result in words
LasR Y56F mutant = LasR Y56F mutant (Pseudomonas aeruginosa, UniProt P25084, Y56F); test: E. coli LasR mutant reporter, Y56F; assay type: cell-based; details: result in words
RhlR = RhlR (Pseudomonas aeruginosa, UniProt P54292); test: E. coli RhlR β-galactosidase reporter; assay type: cell-based; details: result in words
LasR W60F mutant = LasR W60F mutant (Pseudomonas aeruginosa, UniProt P25084, W60F); test: E. coli LasR mutant reporter, W60F; assay type: cell-based; details: 100 μM vs OdDHL at its EC50; result in words
LasR [5] = target: T1, LasR; test: E. coli LasR β-galactosidase reporter, wild-type LasR; assay type: cell-based; details: result in words
LasR [6] = target: T1, LasR; test: LasR antagonism, P. aeruginosa PAO-JP2 GFP reporter, in competition with OdDHL; assay type: cell-based

SMILES: O=C(Cc1ccc(Br)cc1)N[C@H]1CCOC1=O [4-bromo PHL]
- IC50 (LasR [1]): 116 µM

SMILES: CCCCC[C@H](O)/C=C/C=C\C=C\C=C\[C@@H](O)[C@@H](O)CCCC(=O)O [Lipoxin A]
- IC50 (LasR [2]): nanomolar IC50

SMILES: CCCCCCCCCNC(=O)CC(=O)c1ccccc1 [V-06–018, N-nonyl-3-oxo-3-phenylpropanamide]
- soluble (S) LasR band intensity relative to whole cell (WC) band (LasR [3]): ~ 7%
- active efflux by MexAB-OprM (MexAB-OprM efflux pump): not actively effluxed
- LasR S129A antagonism compared with wild-type LasR (LasR S129A mutant; 100 μM vs OdDHL at its EC50): significantly lesser extent than wild-type LasR
- LasR S129A agonism compared with wild-type LasR (LasR S129A mutant; 100 μM): significantly more than wild-type LasR
- LasR activation in dose-response agonism curves (LasR [4]): did not activate LasR
- activity in QscR (antagonist or agonist) (QscR): only a very weak antagonist; also recorded: only a weak QscR antagonist
- LasR Y56F antagonism compared with wild-type LasR (LasR Y56F mutant; 100 μM vs OdDHL at its EC50): significantly lesser extent than wild-type LasR
- LasR Y56F agonism compared with wild-type LasR (LasR Y56F mutant; 100 μM): significantly greater extent than wild-type LasR
- activity in RhlR (antagonist or agonist) (RhlR): no activity (as either an antagonist or agonist)
- LasR W60F antagonism compared with wild-type LasR (LasR W60F mutant): significantly lesser extent than wild-type LasR
- activity in LasR (antagonist in competition, agonist alone) (LasR [5]): only an antagonist of LasR; also recorded: does not agonize wild-type LasR
- IC50 (LasR [6]): 3.9 µM
- LasR antagonism, primary screen (LasR [6]; PAO-JP2, compound 10 μM vs 150 nM OdDHL): ~ 90%
- IC50 (LasR [6]; PAO-JP2, vs 150 nM OdDHL (approximate EC50)): 2.3 µM
- Maximum Inhibition (LasR [6]; PAO-JP2, vs 150 nM OdDHL, best-fit bottom of dose-response curve): 89%
